Several values for one entry are separate records, joined by “and”; a condition that tells them apart may be missing. Identical values can stand only once.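 In this assay, cells in 96-well plates receive the compound at five concentrations for 48 hours. Endpoints are linearly interpolated between the surrounding concentrations. GI50 = concentration required for 50% inhibition of growth.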 Activity calls are given as the source filed them. Cut-off read from the data, not from the text of the source: active = GI50 up to about 1.1 µM and inactive = higher.
Legend:
Test in all cases: NCI tumour cell line growth inhibition, 48 h
A498 = system: A498
A549 = system: A549
ACHN = system: ACHN
COLO 205 = system: COLO 205
DU-145 = system: DU-145
HCT-116 = system: HCT-116
HOP-62 = system: HOP-62
HT-29 = system: HT-29
IGROV-1 = system: IGROV-1
MOLT-4 = system: MOLT-4
OVCAR-3 = system: OVCAR-3
OVCAR-4 = system: OVCAR-4
PC-3 = system: PC-3
SK-MEL-28 = system: SK-MEL-28
SK-OV-3 = system: SK-OV-3
SNB-75 = system: SNB-75
U-251 = system: U-251
UACC-257 = system: UACC-257
UO-31 = system: UO-31
SK-MEL-2 = system: SK-MEL-2

| SMILES | GI50 (A498) | GI50 (A549) | GI50 (ACHN) | GI50 (COLO 205) | GI50 (DU-145) | GI50 (HCT-116) | GI50 (HOP-62) | GI50 (HT-29) | GI50 (IGROV-1) | GI50 (MOLT-4) | GI50 (OVCAR-3) | GI50 (OVCAR-4) | GI50 (PC-3) | GI50 (SK-MEL-28) | GI50 (SK-OV-3) | GI50 (SNB-75) | GI50 (U-251) | GI50 (UACC-257) | GI50 (UO-31) | GI50 (SK-MEL-2) |
| --- | --- | --- | --- | --- | --- | --- | --- | --- | --- | --- | --- | --- | --- | --- | --- | --- | --- | --- | --- | --- |
| CC1(C)N[PH]2(Nc3ccccc3O2)OC1=O | > 100 µM (inactive) | 32.7 µM (inactive) | 42.3 µM (inactive) | 17.8 µM (inactive) | > 100 µM (inactive) | > 100 µM (inactive) | > 100 µM (inactive) | > 100 µM (inactive) | > 100 µM (inactive) | 22.8 µM (inactive) | > 100 µM (inactive) | > 100 µM (inactive) | 41.1 µM (inactive) | 86.9 µM (inactive) | > 100 µM (inactive) | > 100 µM (inactive) | 70.1 µM (inactive) | > 100 µM (inactive) | 96.4 µM (inactive) |  |
| Cc1cc(N(CCC#N)CCC#N)ccc1/C=C(\NC(=O)/C=C/c1ccccc1)C(=O)Nc1ccc(Cl)cc1 | > 100 µM (inactive) | > 36.5 µM (inactive) | 1.83 µM (inactive) | 1.07 µM (active) | > 100 µM (inactive) | 5.41 µM (inactive) |  | > 14.3 µM (inactive) | 7.62 µM (inactive) | 38.1 µM (inactive) | 50.8 µM (inactive) | 30.5 µM (inactive) | 0.586 µM (active) | > 100 µM (inactive) | > 100 µM (inactive) | > 52.4 µM (inactive) | > 7.53 µM (inactive) | > 46 µM (inactive) | 11 µM (inactive) | > 59.6 µM (inactive) |
| NC(=O)c1nnsc1NC=O | > 100 µM (inactive) | > 100 µM (inactive) | > 100 µM (inactive) | > 100 µM (inactive) | > 100 µM (inactive) | > 100 µM (inactive) | > 100 µM (inactive) | > 100 µM (inactive) | > 100 µM (inactive) | > 100 µM (inactive) |  |  | > 100 µM (inactive) | > 100 µM (inactive) | > 100 µM (inactive) | > 100 µM (inactive) | > 100 µM (inactive) | > 100 µM (inactive) | > 100 µM (inactive) | > 100 µM (inactive) |
| C[N+]1(CCC(=O)c2ccco2)CC2CCC(CC2)C1 (stereo not drawn) | > 100 µM (inactive) | > 100 µM (inactive) | > 100 µM (inactive) | > 100 µM (inactive) | > 100 µM (inactive) | > 100 µM (inactive) |  | > 100 µM (inactive) | > 100 µM (inactive) | > 100 µM (inactive) | > 100 µM (inactive) | > 100 µM (inactive) | > 100 µM (inactive) | > 100 µM (inactive) |  | > 100 µM (inactive) | > 100 µM (inactive) | > 100 µM (inactive) | > 100 µM (inactive) | > 100 µM (inactive) |
| COC(=O)c1c(C(=O)OC)c2c3ccccc3n(C)c2c2c1c1ccccc1n2C | 95.1 µM (inactive) | 65.2 µM (inactive) | > 100 µM (inactive) | > 100 µM (inactive) | > 100 µM (inactive) | > 100 µM (inactive) | 19.3 µM (inactive) | > 100 µM (inactive) | 16.9 µM (inactive) | > 100 µM (inactive) |  | 31.4 µM (inactive) | 54.6 µM (inactive) | > 100 µM (inactive) | 50.2 µM (inactive) | 25.8 µM (inactive) | 28.1 µM (inactive) | > 100 µM (inactive) | 16.2 µM (inactive) | 46.8 µM (inactive) |
| O=C1C/C(=C\O)C(=O)c2ccccc2N1 | > 100 µM (inactive) | > 100 µM (inactive) | > 100 µM (inactive) | > 100 µM (inactive) | > 100 µM (inactive) | > 100 µM (inactive) | > 100 µM (inactive) | > 100 µM (inactive) | > 100 µM (inactive) | > 100 µM (inactive) | > 100 µM (inactive) | > 100 µM (inactive) | > 100 µM (inactive) | > 100 µM (inactive) | > 100 µM (inactive) |  | > 100 µM (inactive) | > 100 µM (inactive) | > 100 µM (inactive) | > 100 µM (inactive) |
| CCC(C)C1=C(O)[N+]2([O-])Oc3ccc(-c4c(O)c(O)c(-c5ccc(OC(C)=O)cc5)c(OC(C)=O)c4OC(C)=O)cc3OC2(C(C)CC)C(=O)N1O (stereo not drawn) | 19.3 µM (inactive) | > 50 µM (inactive) and 29.2 µM (inactive) | > 50 µM (inactive) | > 50 µM (inactive) | > 50 µM (inactive) |  | > 50 µM (inactive) | > 50 µM (inactive) | 25.6 µM (inactive) and 17.1 µM (inactive) | 23.7 µM (inactive) and 14.4 µM (inactive) | > 50 µM (inactive) | 12.9 µM (inactive) and 14.9 µM (inactive) | > 50 µM (inactive) | 46.1 µM (inactive) | > 50 µM (inactive) |  | > 50 µM (inactive) | > 50 µM (inactive) | > 50 µM (inactive) | > 50 µM (inactive) |
| CN(C)c1ccc(/C=C2\CCCCCC2=O)cc1 | > 100 µM (inactive) | > 100 µM (inactive) | 58.7 µM (inactive) | > 100 µM (inactive) | > 100 µM (inactive) | 57.3 µM (inactive) | 66.7 µM (inactive) | > 100 µM (inactive) | > 100 µM (inactive) | > 100 µM (inactive) | 71.1 µM (inactive) |  | 65 µM (inactive) | > 100 µM (inactive) | > 100 µM (inactive) | > 100 µM (inactive) |  | 74.3 µM (inactive) | 50.6 µM (inactive) | > 100 µM (inactive) |

— ChEMBL document CHEMBL1201862, “PubChem BioAssay data set” (2004)
